# Measurements reported in patent US10703757B2, “Compounds and methods for CDK8 modulation and indications therefor” (Plexxikon Inc., priority 2016, dated 2020).
# What was measured:
# [1] = tested on: CDK8 (phosphorylation of STAT1 at serine 727 in A549 cells); experiment: Cell based Phospho-STAT1 assay (IFNγ-stimulated A549 cells, AlphaLISA); details: Homo sapiens, A549, A549 cells, phospho-STAT1 after IFNγ stimulation
# Method in brief: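 A549 cells given serial compound dilutions for 1 h at 37 °C, then stimulated with IFNγ at 10 ng/mL final for 30 min. Lysate STAT1 Ser727 phosphorylation measured by AlphaLISA; % inhibition vs stimulated/unstimulated DMSO controls, IC50 by nonlinear regression.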
# [2] = tested on: CDK8 (TCF/LEF luciferase reporter in HCT116 cells); experiment: Cell based TCF/LEF reporter assay (HCT116+TCF/LEF luciferase); details: Homo sapiens, HCT-116, 24 h
# Description: Determine Inhibitor Activity Against CDK8 in Cell Based TCF/LEF Reporter Assay
# The colorectal carcinoma cell line HCT116 was stably transduced with lentivirus encoding the TCF/LEF promoter upstream of a luciferase reporter gene (Qiagen) and single cell clones expressing this construct (referred to as HCT116+TCF/LEF) were isolated. HCT116 express endogenous mutant β-catenin^3, resulting in up-regulation of transcription through the TCF/LEF promoter. Expression of the TCF/LEF reporter construct in HCT116 results in constitutive expression of luciferase. Treatment of the cells with inhibitors of components of the β-catenin signaling pathway (such as CDK8) results in decreased expression of luciferase. The assay is performed as follows. The HCT116+TCF/LEF cell line is seeded in a 96 well plate in 50 μL of culture media at 1×10^4 cells/well and incubated at 37° C. overnight. Serial dilutions of compounds (in total volume of 50 μL culture media) are added to the cells and incubated at 37° C. for 24 hours. 4 wells of DMSO treated cells serve as high controls and cells treated with 10 uM of the reference compound CCT251545 (a known CDK8 inhibitor)^4 serve as low controls. The viability of the cells is assayed by the addition of […] reagent (Promega) followed by 30 minute incubation at 37° C. and quantification of the fluorescent signal (Ex400/Em505). The luciferase expression is then assayed by the addition of 25 μL ONE-Glo reagent (Promega) followed by 10 minute incubation at room temperature and quantification of the luminescence signal. The luminescence signal is normalized to the fluorescence signal to correct for any loss in cell viability over the 24 hour compound incubation period. The percentage inhibition at individual concentrations relative to high and low controls is calculated. The data are analyzed by using nonlinear regression to generate IC50 values.
Compound,IC50 [1],IC50 [2]
"N#CC1CCC(c2cccn3ncc(-c4ccc(-n5ccnn5)cc4)c23)CC1 (mixture of isomers) [Compound P-0217, (1r,4r) and (1s,4s)-4-[3-[4-(triazol-1-yl)phenyl]pyrazolo[1,5-a]pyridin-4-yl]cyclohexanecarbonitrile]",0.1 to 100 nM,0.1 to 100 nM
"CC(C)(O)Cn1cc(-c2ccc(-c3cnn4ccnc(C5CCC(C#N)CC5)c34)c(F)c2)cn1 (stereo not drawn) [Compound P-0001, (1s,4s)-4-(3-(2-fluoro-4-(1-(2-hydroxy-2-methylpropyl)-1H-pyrazol-4-yl)phenyl)pyrazolo[1,5-a]pyrazin-4-yl)cyclohexane-1-carbonitrile]",0.1 to 100 nM,0.1 to 100 nM
"N#CCCCn1cc(-c2ccc(-c3cnn4ccnc(C5CCC(C#N)CC5)c34)cc2)cn1 (stereo not drawn) [Compound P-0002, (1s,4s)-4-(3-(4-(1-(3-cyanopropyl)-1H-pyrazol-4-yl)phenyl)pyrazolo[1,5-a]pyrazin-4-yl)cyclohexane-1-carbonitrile]",0.1 to 100 nM,0.1 to 100 nM
"Cn1cc(-c2ccc(-c3cnn4ccnc(C#CC(C)(C)C(N)=O)c34)cc2)cn1 [Compound P-0003, 2,2-dimethyl-4-(3-(4-(1-methyl-1H-pyrazol-4-yl)phenyl)pyrazolo[1,5-a]pyrazin-4-yl)but-3-ynamide]",0.1 to 100 nM,0.1 to 100 nM
"CC(C)(C#Cc1nccn2ncc(-c3ccc(-c4cnn(CCC#N)c4)cc3)c12)C(N)=O [Compound P-0004, 4-(3-(4-(1-(2-cyanoethyl)-1H-pyrazol-4-yl)phenyl)pyrazolo[1,5-a]pyrazin-4-yl)-2,2-dimethylbut-3-ynamide]",0.1 to 100 nM,0.1 to 100 nM
"CC(C)(C#Cc1cccn2ncc(-c3ccc(-c4cnn(CCC#N)c4)cc3)c12)C(N)=O [Compound P-0005, 4-(3-(4-(1-(2-cyanoethyl)-1H-pyrazol-4-yl)phenyl)pyrazolo[1,5-a]pyridin-4-yl)-2,2-dimethylbut-3-ynamide]",0.1 to 100 nM,0.1 to 100 nM
"CC(C)(O)Cn1cc(-c2ccc(-c3cnn4cccc(C#CC(C)(C)C(N)=O)c34)cc2)cn1 [Compound P-0006, 4-(3-(4-(1-(2-hydroxy-2-methylpropyl)-1H-pyrazol-4-yl)phenyl)pyrazolo[1,5-a]pyridin-4-yl)-2,2-dimethylbut-3-ynamide]",0.1 to 100 nM,0.1 to 100 nM
"N#CC1CCC(c2nccn3ncc(-c4ccc(-c5cnn(CCF)c5)cc4)c23)CC1 (stereo not drawn) [Compound P-0007, (1s,4s)-4-(3-(4-(1-(2-fluoroethyl)-1H-pyrazol-4-yl)phenyl)pyrazolo[1,5-a]pyrazin-4-yl)cyclohexane-1-carbonitrile]",0.1 to 100 nM,0.1 to 100 nM
"N#CC1CC=C(c2nccn3ncc(-c4ccc(OCC(F)(F)F)c(F)c4)c23)CC1 (stereo not drawn) [Compound P-0037, 4-(3-(3-fluoro-4-(2,2,2-trifluoro-ethoxy)phenyl)pyrazolo[1,5-a]pyrazin-4-yl)cyclohex-3-ene-1-carbonitrile]",–,100 to 1000 nM
"CC(C)(C#Cc1cccn2ncc(-c3ccc(N4CCOCC4)c(F)c3)c12)C(=O)O [Compound P-0092, 4-(3-(3-fluoro-4-morpholinophenyl)pyrazolo[1,5-a]pyridin-4-yl)-2,2-dimethylbut-3-ynoic acid]",–,100 to 1000 nM
"CC(C)(O)Cn1cc(-c2ccc(-c3cnn4cccc(C#CC(C)(C)C(=O)O)c34)cc2)cn1 [Compound P-0093, 4-(3-(4-(1-(2-hydroxy-2-methylpropyl)-1H-pyrazol-4-yl)phenyl)pyrazolo[1,5-a]pyridin-4-yl)-2,2-dimethylbut-3-ynoic acid]",–,100 to 1000 nM
"N#CC1CC=C(c2c(-c3ccc4c(cnn4CC4(C(=O)O)CC4)c3)cnc3[nH]ccc23)CC1 (stereo not drawn) [Compound P-0108, 1-((5-(4-(4-cyanocyclohex-1-en-1-yl)-1H-pyrrolo[2,3-b]pyridin-5-yl)-1H-indazol-1-yl)methyl)cyclopropane-1-carboxylic acid]",–,100 to 1000 nM
"Cc1cc(-c2ccc(-c3cnc4[nH]ccc4c3N3CCC(C#N)CC3)cc2)n[nH]1 [Compound P-0175, 1-(5-(4-(5-methyl-1H-pyrazol-3-yl)phenyl)-1H-pyrrolo[2,3-b]pyridin-4-yl)piperidine-4-carbonitrile]",–,0.1 to 100 nM
"O=C(O)C1CC=C(c2cccn3ncc(-c4ccc(-n5ccnn5)cc4)c23)CC1 (stereo not drawn) [Compound P-0212, 4-(3-(4-(1H-1,2,3-triazol-1-yl)phenyl)pyrazolo[1,5-a]pyridin-4-yl)cyclohex-3-ene-1-carboxylic acid]",–,100 to 1000 nM
"N#CC1CCN(c2cccn3ncc(-c4ccc(S(=O)(=O)N5CCCCC5)cc4)c23)CC1 [Compound P-0256, 1-(3-(4-(piperidin-1-ylsulfonyl)phenyl)pyrazolo[1,5-a]pyridin-4-yl)piperidine-4-carbonitrile]",–,1000 to 10000 nM
"Cn1cc(-c2ccc(-c3cnc4cccc(N5CCC(CO)CC5)n34)cc2)cn1 [Compound P-0434, [1-[3-[4-(1-methylpyrazol-4-yl)phenyl]imidazo[1,2-a]pyridin-5-yl]-4-piperidyl]methanol]",1000 to 10000 nM,–
"CC(=O)N1CC=C(c2cccc3ncc(-c4ccc(-c5cnn(C)c5)cc4)n23)CC1 [Compound P-0436, 1-(4-(3-(4-(1-methyl-1H-pyrazol-4-yl)phenyl)imidazo[1,2-a]pyridin-5-yl)-3,6-dihydropyridin-1(2H)-yl)ethan-1-one]",1000 to 10000 nM,–
"CN1CCC(Oc2cccc3ncc(-c4ccc(-c5cnn(C)c5)cc4)n23)CC1 [Compound P-0439, 3-(4-(1-methyl-1H-pyrazol-4-yl)phenyl)-5-((1-methylpiperidin-4-yl)oxy)imidazo[1,2-a]pyridine]",0.1 to 100 nM,–
"N#CC1CCN(c2cccc3ncc(-c4ccc(-c5cnn(C(F)F)c5)cc4)n23)CC1 [Compound P-0440, 1-(3-(4-(1-(difluoromethyl)-1H-pyrazol-4-yl)phenyl)imidazo[1,2-a]pyridin-5-yl)piperidine-4-carbonitrile]",0.1 to 100 nM,–
"O=C1Nc2ccccc2C12CCN(c1cccc3ncc(-c4ccc(-c5cnn(C(F)F)c5)cc4)n13)CC2 [Compound P-0441, 1′-(3-(4-(1-(difluoromethyl)-1H-pyrazol-4-yl)phenyl)imidazo[1,2-a]pyridin-5-yl)spiro[indoline-3,4′-piperidin]-2-one]",0.1 to 100 nM,–
"CNC(=O)C1CC=C(c2cccn3ncc(-c4ccc(-c5cnn(C)c5)cc4)c23)CC1 (stereo not drawn) [Compound P-0442, N-methyl-4-(3-(4-(1-methyl-1H-pyrazol-4-yl)phenyl)pyrazolo[1,5-a]pyridin-4-yl)cyclohex-3-ene-1-carboxamide]",0.1 to 100 nM,–
"CCOC(=O)C1CC=C(c2cccn3ncc(-c4ccc(-c5cnn(C)c5)cc4)c23)CC1 (stereo not drawn) [Compound P-0446, ethyl 4-(3-(4-(1-methyl-1H-pyrazol-4-yl)phenyl)pyrazolo[1,5-a]pyridin-4-yl)cyclohex-3-ene-1-carboxylate]",100 to 1000 nM,–
"CCOC(=O)C1CCN(c2cccc3ncc(-c4ccc(-c5cnn(C)c5)cc4)n23)CC1 [Compound P-0447, ethyl 1-(3-(4-(1-methyl-1H-pyrazol-4-yl)phenyl)imidazo[1,2-a]pyridin-5-yl)piperidine-4-carboxylate]",0.1 to 100 nM,–
"N#CC1CCN(c2cccc3ncc(-c4ccc(CNC(=O)c5cccnc5)cc4)n23)CC1 [Compound P-0448, N-(4-(5-(4-cyanopiperidin-1-yl)imidazo[1,2-a]pyridin-3-yl)benzyl)nicotinamide]",1000 to 10000 nM,–
"O=C(NCc1ccc(-c2cnc3cccc(N4CCC5(CCNC5=O)CC4)n23)cc1)c1cccnc1 [Compound P-0449, N-(4-(5-(1-oxo-2,8-diazaspiro[4.5]decan-8-yl)imidazo[1,2-a]pyridin-3-yl)benzyl)nicotinamide]",1000 to 10000 nM,–
"Cn1cc(-c2ccc(-c3cnc4cccc(N5CCC6(CCNC6=O)CC5)n34)cc2)cn1 [Compound P-0450, 8-(3-(4-(1-methyl-1H-pyrazol-4-yl)phenyl)imidazo[1,2-a]pyridin-5-yl)-2,8-diazaspiro[4.5]decan-1-one]",0.1 to 100 nM,–
"Cn1cc(-c2ccc(-c3cnc4cccc(N5CCC(C#N)(c6ccccc6)CC5)n34)cc2)cn1 [Compound P-0451, 1-(3-(4-(1-methyl-1H-pyrazol-4-yl)phenyl)imidazo[1,2-a]pyridin-5-yl)-4-phenylpiperidine-4-carbonitrile]",0.1 to 100 nM,–
"Cn1cc(Nc2ncc(-c3cnc4cccc(N5CCC6(CC5)C(=O)Nc5ccccc56)n34)cn2)cn1 [Compound P-0453, 1′-(3-(2-((1-methyl-1H-pyrazol-4-yl)amino)pyrimidin-5-yl)imidazo[1,2-a]pyridin-5-yl)spiro[indoline-3,4′-piperidin]-2-one]",100 to 1000 nM,–
